What was measured:
[1] = system: neutrophils; assay: Formation of NETs in neutrophils stimulated by cancer cell conditioned medium (immunofluorescence, MPO and Ci-H3); assay type: cell-based, mice; conditions: CM of lung-/liver-metastatic breast cancer and bone-metastatic lung cancer cells, with or without brensocatib; FIGS. 11D, F, I
Procedure: To isolate neutrophil from bone marrow, bone marrow cells from 8 to 12-weeks-old BALB/c mice were harvested in sterile Hank's buffered salt solution (HBSS) without Ca^2+/Mg^2+ (14185052, Invitrogen), and laid on top of a 2-layer Percoll (17089102, GE Healthcare) gradient (72% and 63.5% in HBSS), followed by centrifugation at 1,200 g for 30 min at 25° C. Neutrophils enriched in the interface of 63.5%-72% fractions were confirmed to be of >95% purity by flow cytometry analysis. To isolate neutrophils from peripheral blood of mice, whole blood was collected via cardiac puncture (1 ml per animal) and suspended in HBSS (2 ml per animal) with 15 mM EDTA. After centrifugation (400 g, 10 min, 4° C.), white cells were resuspended in 2 ml HBSS with 2 mM EDTA. […] The purity of the isolated neutrophils was determined by May-Grunwald-Giemsa staining (40751ES02, Yea-sen). […]
To assess NET formation, neutrophils (2.5×10^5 cells) were seeded on coverslips coated with poly-L-lysine (P4707, Sigma) in 24-well plates for 30 min before adding 10% cancer cell CM, Sivelestat (10 μM), PMA (20 nM, Sigma), Cl-amidine (100 μM, Selleck) and/or DNase I (1 μg/ml). […] NET area quantification was performed using the DANA method (Rebernick et al., “DNA area and NETosis analysis (DANA): a high-throughput method to quantify neutrophil extracellular traps in fluorescent microscope images,” Biol. Proced. Online 20:7 (2018)). […]

[2] = molecular target: T1, membrane-bound PR3 (Homo sapiens, UniProt P24158); assay: Membrane-bound PR3 activity of neutrophils cultured with CM of SCP28 cells overexpressing CTSC; assay type: cell-based; conditions: Sivelestat 10 μM, Alvelestat 10 μM, CTSGi 20 μM, FIG. 7D
T1 construct: endogenous in cells; host or cells: human peripheral-blood neutrophils (whole-cell suspension)
T1 sequence (P24158 28-248): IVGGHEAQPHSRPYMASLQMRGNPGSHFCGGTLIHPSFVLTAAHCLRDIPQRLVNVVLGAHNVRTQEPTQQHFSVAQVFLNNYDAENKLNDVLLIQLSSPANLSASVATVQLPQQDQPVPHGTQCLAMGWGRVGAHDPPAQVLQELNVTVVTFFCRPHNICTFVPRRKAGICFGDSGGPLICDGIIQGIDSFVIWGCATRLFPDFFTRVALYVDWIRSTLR
Procedure: The procedure of enzyme activity assays were conducted as previously reported (Korkmaz et aL, “Neutrophil proteinase 3 and dipeptidyl peptidase I (cathepsin C) as pharmacological targets in granulomatosis with polyangiitis (Wegener granulomatosis),” Semin. Immunopathol. 35:411-421 (2008)). The PR3 or NE enzymatic activity was quantified by detecting the rate of hydrolysis of the PR3-specific substrate (Abz)-VADnorVADRQ-(EDDnp) or NE specific substrate (Abz)-APEEIMRRQ-(EDDnp) by cell suspension or free enzymes. To analyze membrane-bound PR3 activity, neutrophils were cultured in cancer cell CM or non-conditioned medium, and treated with DMSO or various inhibitors, including Sivelestat (10 μM), Alvelestat (10 μM) and CTSGi (20 μM) for 30-45 min at 37° C. Then, cells were suspended in activity buffer (5×10^6 per ml, PBS, 4 mM EGTA, pH 7.4) with 15 μM of the PR3-specific substrate, and the kinetic of hydrolysis was followed by measuring the fluorescence at λex=320 nm and λem=420 nm. For activation of PR3 in isolated plasma membrane fraction, recombinant human CTSC (1071-CY, R&D) was activated according to the manufacturer's instruction. […] The activity of free PR3 and NE were measured in the assay buffer (50 mM Tris, 750 mM NaCl, pH 7.4) with 15 μM specific substrates by recording the fluorescence at λex=320 nm and λem=420 nm. […]

[3] = system: murine neutrophils; assay: In vitro NET analysis of neutrophils cultured in 4T07 or 4T1 conditioned media; assay type: cell-based; conditions: Sivelestat 10 μM or DNase I 1 μg/ml; FIG. 8F
Procedure: To assess NET formation, neutrophils (2.5×10^5 cells) were seeded on coverslips coated with poly-L-lysine (P4707, Sigma) in 24-well plates for 30 min before adding 10% cancer cell CM, Sivelestat (10 μM), PMA (20 nM, Sigma), Cl-amidine (100 μM, Selleck) and/or DNase I (1 μg/ml). After 12 to 16 h at 37° C., neutrophils were fixed with 4% paraformaldehyde (PFA) for 10 min at room temperature, washed twice with PBS and permeabilized in 0.1% Triton X-100 for 5 min. […] NET area quantification was performed using the DANA method (Rebernick et al., “DNA area and NETosis analysis (DANA): a high-throughput method to quantify neutrophil extracellular traps in fluorescent microscope images,” Biol. Proced. Online 20:7 (2018)). Briefly, the areas of structures depicting NET morphology and positive for Ci-H3 or total H3 were counted as NETotic cell areas, and the NET area percentages were analyzed as NETotic cell areas divided by total DNA areas. The percentages of NETotic cells were analyzed as previously described ([…]). […] The percentage of NETotic cells was counted as the numbers of NETotic cells divided by the total cell numbers. […]

Compound	formation of NETs [1]	upregulated PR3 activity resulting from CTSC overexpression [2]	NET formation induced by CTSC (percentage area covered by NETs) [3]
Cn1c(=O)oc2ccc(-c3ccc(C[C@@H](C#N)NC(=O)[C@@H]4CNCCCO4)cc3)cc21 [brensocatib, (2S)—N-{(1S)-1-cyano-2-[4-(3-methyl-2-oxo-2,3-dihydro-1,3-benzoxazol-5-yl)phenyl]ethyl}-1,4-oxazepane-2-carboxamide]	significantly reduced		
CC(C)(C)C(=O)Oc1ccc(S(=O)(=O)Nc2ccccc2C(=O)NCC(=O)O)cc1 [Silvelestat]		significantly reduces	blocks the ability of CTSC to induce NET formation

From US12697328B2, “Methods for treating metastasis with cathepsin C inhibitors” (Shanghai Institute of Nutrition and Health, Chinese Academy …, priority 2020, dated 2026)
